The source of these data is ChEMBL document CHEMBL3525983, “Pharmacokinetics, metabolism, and disposition of rivoglitazone, a novel peroxisome proliferator-activated receptor γ agonist, in rats and monkeys” (Drug Metab Dispos, 2011).

In data set [1] the test system is Rattus norvegicus. The data set is described as follows: Drug level in F344/DuCrlCrlj rat plasma treated with [14C]rivoglitazone at 1 to 5 mg/kg, po administered as single dose via gavage by LC-MS/MS analysis. The arrangement: dose 1-5 mg/kg, dosed compound name [14C]Rivoglitazone, route oral. As to conditions: in vivo. The class given is ADME, organism-based.
A short description of data set [2]: Retention time of the compound by LC-MS/MS analysis. The class given is physicochemical. On the set-up: dosed compound name [14C]Rivoglitazone.
Data set [3] is described as follows: Drug excretion in F344/DuCrlCrlj rat urine treated with [14C]rivoglitazone at 1 mg/kg, po administered via gavage measured during 0 to 48 hrs by radio-HPLC analysis. On the set-up: dose 1 mg/kg, dosed compound name [14C]Rivoglitazone, route oral. The class given is ADME, organism-based. Particulars: in vivo.
Data set [4] can be described thus: Drug excretion in F344/DuCrlCrlj rat feces treated with [14C]rivoglitazone at 1 mg/kg, po administered via gavage measured during 0 to 48 hrs by radio-HPLC analysis. As to conditions: in vivo. The class given is ADME, organism-based. The arrangement: dose 1 mg/kg, dosed compound name [14C]Rivoglitazone, route oral.
The nature of data set [5]: Drug excretion in F344/DuCrlCrlj rat bile treated with [14C]rivoglitazone at 1 mg/kg, po administered via gavage measured during 0 to 48 hrs by radio-HPLC analysis. Particulars: in vivo. The arrangement: dose 1 mg/kg, dosed compound name [14C]Rivoglitazone, route oral. It is filed as ADME, organism-based.
Data set [6] can be described thus: Drug excretion in F344/DuCrlCrlj rat urine/feces treated with [14C]rivoglitazone at 1 mg/kg, po administered via gavage measured during 0 to 48 hrs by radio-HPLC analysis. As to conditions: in vivo. The arrangement: dose 1 mg/kg, dosed compound name [14C]Rivoglitazone, route oral. It is filed as ADME, organism-based.
Data set [7] in a line: Drug excretion in F344/DuCrlCrlj rat urine/bile treated with [14C]rivoglitazone at 1 mg/kg, po administered via gavage measured during 0 to 48 hrs by radio-HPLC analysis. On the set-up: dose 1 mg/kg, dosed compound name [14C]Rivoglitazone, route oral. It is filed as ADME, organism-based. As to conditions: in vivo.
In data set [8] the test system is Rattus norvegicus. As to the kind of experiment: Drug level in F344/DuCrlCrlj rat plasma treated with [14C]rivoglitazone assessed as ratio of molar basis AUC (0 to t) at 1 mg/kg, po administered via gavage by LC-MS/MS analysis. The class given is ADME, organism-based. The arrangement: dose 1 mg/kg, dosed compound name [14C]Rivoglitazone, route oral. Particulars: in vivo.

Data set [9] concerns Rhesus monkey. As to the kind of experiment: Drug level in monkey plasma treated with [14C]rivoglitazone assessed as ratio of molar basis AUC (0 to t) at 1 mg/kg, po administered via gavage by LC-MS/MS analysis. It is filed as ADME, organism-based, Macaca mulatta. The arrangement: dose 1 mg/kg, dosed compound name [14C]Rivoglitazone, route oral. As to conditions: in vivo.

As to `Cn1c(COc2ccc(CC3SC(=O)NC3=O)cc2)nc2ccc(OS(=O)(=O)O)cc21` (centres undefined), the Compound recovery result in data set [1] is recorded as “metabolite_detected”; in data set [3], 10%; in data set [4] it was “metabolite_not_detected”; in data set [5] it was 23%; in [6] it was 10%; in data set [7], 33%. Besides, the Retention_time in data set [2] is given as 19 min. In addition, the values for the AUCmet/AUCp in data set [8] and in data set [9] were 23.4% and 0.64%, respectively.
